Measurements published in ChEMBL document CHEMBL4483862, “Open-source discovery of chemical leads for next-generation chemoprotective antimalarials” (2018).

Test system: Plasmodium berghei
Test: Luciferase/luciferin-expressing antifolate-resistant parasites were used to infect a culture of HepG2 cells that were pre-incubated with compounds. Infected hepatocytes emit light due to the luciferase reaction. Assay results are presented as the percent inhibition of light emission compared to control. […]
Assay type: functional
Conditions: sporozoite; for IC90: read-out: LUCIFERASE INFECTION ASSAY - IC90
[1] = read-out: LUCIFERASE INFECTION ASSAY - IC50

Structure (SMILES)	IC90	IC50 [1]	further results
CCC(C)NC(=O)c1c(NC(=O)c2ccc(Cl)cc2Cl)nc2ccc(C)cn12 (stereo not given)	0.967 µM		IC50 (FFLUC_HILL_SLOPE 13.5, FFLUC_R_SQUARED 0.613, HEPG2TOX_HILL_SLOPE 1.25, HEPG2TOX_R_SQUARED 0.963, PBLUC_HILL_SLOPE 11.1, PBLUC_R_SQUARED 0.736, read-out: LUCIFERASE INFECTION ASSAY - IC50): 0.793 µM
O=C(Nc1ccc(N2CCN(c3ncccc3C(F)(F)F)CC2)nc1)c1cccs1	0.867 µM		IC50 (PBLUC_HILL_SLOPE 2.12, PBLUC_R_SQUARED 0.656, read-out: LUCIFERASE INFECTION ASSAY - IC50): 0.307 µM
CCOC(=O)C1=C(c2ccccc2)N=C(N)NC1c1ccc(OCc2ccc(Cl)cc2)c(OC)c1 (stereo not given)	> 10 µM		IC50 (PBLUC_HILL_SLOPE 5.7, PBLUC_R_SQUARED 0.538, read-out: LUCIFERASE INFECTION ASSAY - IC50): 7.1 µM
COc1ccc(CC(=O)N2CCC3(CC2)OCc2ccccc2O3)cc1	> 9.34 µM		IC50 (FFLUC_HILL_SLOPE 13.5, FFLUC_R_SQUARED 0.0841, HEPG2TOX_HILL_SLOPE 0.312, HEPG2TOX_R_SQUARED 0.567, read-out: LUCIFERASE INFECTION ASSAY - IC50): > 9.34 µM
CC1CCN(Cc2csc(NC(=O)c3ccc4ncsc4c3)n2)CC1	> 10 µM		IC50 (HEPG2TOX_HILL_SLOPE 0.129, HEPG2TOX_R_SQUARED 0.115, read-out: LUCIFERASE INFECTION ASSAY - IC50): > 10 µM
CN1CCN(C(=O)c2ccc(-c3cnc4cnc(/C=C/c5ccccc5)cn34)cc2)CC1	> 7.79 µM		IC50 (HEPG2TOX_HILL_SLOPE 0.285, HEPG2TOX_R_SQUARED 0.311, PBLUC_HILL_SLOPE 1.14, PBLUC_R_SQUARED 0.7, read-out: LUCIFERASE INFECTION ASSAY - IC50): 3.11 µM
COc1ccc(NC(=O)C(C)N2CCN(CCc3ccccc3)CC2)cc1Cl (stereo not given)	> 10 µM	> 10 µM	
O=C(Nc1ncccc1O)c1ccc(-n2ccnc2)cc1	8.71 µM		IC50 (PBLUC_HILL_SLOPE 2.04, 2.50, 2.35, PBLUC_R_SQUARED 0.554, 0.491, 0.399, read-out: LUCIFERASE INFECTION ASSAY - IC50): 3.31 µM
Cc1ccc(SCc2ccc(-c3nc4ccccc4s3)cc2)cc1	> 9.5 µM		IC50 (PBLUC_HILL_SLOPE 1.56, PBLUC_R_SQUARED 0.316, read-out: LUCIFERASE INFECTION ASSAY - IC50): 4.39 µM
O=C(Nc1nc2ccccc2[nH]1)c1ccccn1	> 10 µM		IC50 (FFLUC_HILL_SLOPE 12.7, FFLUC_R_SQUARED 0.6, read-out: LUCIFERASE INFECTION ASSAY - IC50): > 10 µM
N#CC(=C1NS(=O)(=O)c2ccccc21)c1nc(C23CC4CC(CC(C4)C2)C3)cs1	1.97 µM		IC50 (FFLUC_HILL_SLOPE 0.216, FFLUC_R_SQUARED 0.688, PBLUC_HILL_SLOPE 0.978, PBLUC_R_SQUARED 0.875, read-out: LUCIFERASE INFECTION ASSAY - IC50): 0.208 µM
O=C(Nc1cc(C(F)(F)F)ccc1N1CCOCC1)c1ccc(SCc2cscn2)cc1	> 10 µM		IC50 (PBLUC_HILL_SLOPE 11.6, PBLUC_R_SQUARED 0.493, read-out: LUCIFERASE INFECTION ASSAY - IC50): 8.97 µM
CC(C)n1c(SCC(=O)N(Cc2ccco2)C2=CCCCC2)nc2ccccc2c1=O	9.27 µM		IC50 (FFLUC_HILL_SLOPE 16.9, FFLUC_R_SQUARED 0.338, PBLUC_HILL_SLOPE 11.7, PBLUC_R_SQUARED 0.501, read-out: LUCIFERASE INFECTION ASSAY - IC50): 7.68 µM
CCNC(=S)N/N=C1\C(=O)Nc2ccc(C(C)C)cc21	7.94 µM	4.21 µM	
Cn1c(Nc2cccc(C(F)(F)F)c2)nc2cnc(-c3ccc(N)nc3)cc21	> 10 µM		IC50 (PBLUC_HILL_SLOPE 1.84, PBLUC_R_SQUARED 0.0919, read-out: LUCIFERASE INFECTION ASSAY - IC50): > 10 µM
CCNc1nnc(SCC(=O)N2CCNC2=O)s1	> 10 µM	> 10 µM	
Cc1sc2ncnc(Sc3nnc(C(F)(F)F)n3C)c2c1C	> 10 µM	> 10 µM	
O=C(COC(=O)c1cc(-c2ccc(Cl)cc2)nc2ccccc12)Nc1cc(C(F)(F)F)ccc1-n1cncn1	> 10 µM	> 10 µM	
c1ccc(Oc2ccc(-c3cnc4cnc(-c5cccnc5)cn34)cc2)cc1	6.96 µM	3 µM	
CC(=O)c1cnc2sc(C(=O)OC3CCCCC3)c(C)c2c1	3.88 µM		IC50 (PBLUC_HILL_SLOPE 13.1, PBLUC_R_SQUARED 0.209, read-out: LUCIFERASE INFECTION ASSAY - IC50): 3.28 µM
O=C(Cn1ncc(Cl)c(Cl)c1=O)Nc1ccc(F)c(F)c1F	9.46 µM		IC50 (HEPG2TOX_HILL_SLOPE 271, HEPG2TOX_R_SQUARED 0.59, PBLUC_HILL_SLOPE 12.5, PBLUC_R_SQUARED 0.106, read-out: LUCIFERASE INFECTION ASSAY - IC50): 7.93 µM
CCn1c2ccccc2c2cc(N)ccc21	> 10 µM	> 10 µM	

Structure (SMILES)	IC90	IC50 [1]	further results
Cc1cc(NC(=O)C(Nc2ccc(N3CCCC3)c(C)c2)c2ccccc2)no1 (stereo not given)	> 10 µM		IC50 (FFLUC_HILL_SLOPE 3.98, FFLUC_R_SQUARED 0.653, PBLUC_HILL_SLOPE 2, PBLUC_R_SQUARED 0.333, read-out: LUCIFERASE INFECTION ASSAY - IC50): > 10 µM
CCCOc1cccc(NC(=O)c2cc(CC(C)C)oc2C)c1	10.1 µM		IC50 (PBLUC_HILL_SLOPE 5.71, PBLUC_R_SQUARED 0.294, read-out: LUCIFERASE INFECTION ASSAY - IC50): 6.86 µM
CC(C)c1ccc2c(c1)/C(=N/NC(=S)NCCc1ccccc1)C(=O)N2	8.12 µM		IC50 (FFLUC_HILL_SLOPE 19.2, FFLUC_R_SQUARED 0.695, HEPG2TOX_HILL_SLOPE 7.84, HEPG2TOX_R_SQUARED 0.253, PBLUC_HILL_SLOPE 4.58, PBLUC_R_SQUARED 0.343, read-out: LUCIFERASE INFECTION ASSAY - IC50): 5.02 µM
O=c1c2c3c(sc2nc(SCc2cc(=O)n4ccsc4n2)n1-c1ccccc1C(F)(F)F)CCCCC3	> 10 µM		IC50 (FFLUC_HILL_SLOPE 12.2, FFLUC_R_SQUARED 0.743, read-out: LUCIFERASE INFECTION ASSAY - IC50): > 10 µM
COc1ccc(-c2csc3ncnc(Sc4nnnn4CC4CCCO4)c23)cc1 (stereo not given)	> 10 µM		IC50 (HEPG2TOX_HILL_SLOPE 3.82, HEPG2TOX_R_SQUARED 0.683, PBLUC_HILL_SLOPE 2.52, PBLUC_R_SQUARED 0.576, read-out: LUCIFERASE INFECTION ASSAY - IC50): 6.48 µM
O=C(Cn1ncc(Cl)c(Cl)c1=O)NCCC(c1ccccc1)c1ccccc1	7.67 µM	5.37 µM	
S=C(Nc1ccccc1)N1CCCN(c2nc3ccc(Cl)cc3s2)CC1	3.16 µM		IC50 (HEPG2TOX_HILL_SLOPE 1.54, HEPG2TOX_R_SQUARED 0.918, PBLUC_HILL_SLOPE 12.4, PBLUC_R_SQUARED 0.732, read-out: LUCIFERASE INFECTION ASSAY - IC50): 2.65 µM
CC(C)(C)CC(C)(C)c1ccc(OCC(O)CNC2CCC(O)CC2)cc1 (stereo not given)	7.58 µM		IC50 (HEPG2TOX_HILL_SLOPE 10.5, HEPG2TOX_R_SQUARED 0.116, PBLUC_HILL_SLOPE 3.56, PBLUC_R_SQUARED 0.606, read-out: LUCIFERASE INFECTION ASSAY - IC50): 4.09 µM
CCNC(=O)c1nn(Cc2ccccc2)c2c1CC(NCC(C)C)CC2 (stereo not given)	> 9.31 µM		IC50 (PBLUC_HILL_SLOPE 1.56, PBLUC_R_SQUARED 0.224, read-out: LUCIFERASE INFECTION ASSAY - IC50): 6.64 µM
Cc1ccc(C)c(C(=O)C(C)Sc2nnc(-c3cccc(Br)c3)o2)c1 (stereo not given)	9.4 µM		IC50 (HEPG2TOX_HILL_SLOPE 2.02, HEPG2TOX_R_SQUARED 0.871, PBLUC_HILL_SLOPE 4.17, 0.287, PBLUC_R_SQUARED 0.527, 0.262, read-out: LUCIFERASE INFECTION ASSAY - IC50): 4.21 µM
COC(=O)/C=C/c1ccc(OCC(O)COc2ccc(C(C)(C)C)cc2)c(OC)c1 (stereo not given)	> 10 µM	> 10 µM	
Cc1cc2ccccn2c1C(=O)c1ccccc1Br	> 10 µM		IC50 (HEPG2TOX_HILL_SLOPE 6.22, HEPG2TOX_R_SQUARED 0.365, PBLUC_HILL_SLOPE 4.01, PBLUC_R_SQUARED 0.105, read-out: LUCIFERASE INFECTION ASSAY - IC50): 9.81 µM
O=C(COc1cccc(Br)c1)N/N=C/C1=C(N2CCOCC2)C(=C/c2ccc(Cl)cc2)/CC1	> 10 µM	> 10 µM	
OCC1CCCN(c2nn3cc(-c4ccccc4)nc3s2)C1 (stereo not given)	0.00758 µM		
Clc1cccc(-c2nnc3ccc(-c4ccc(N5CCOCC5)cc4)cn23)c1	> 10 µM		IC50 (PBLUC_HILL_SLOPE 15.8, PBLUC_R_SQUARED 0.114, read-out: LUCIFERASE INFECTION ASSAY - IC50): 9.72 µM
CCOC(=O)c1c(S(=O)(=O)Nc2cccc([N+](=O)[O-])c2)c(-c2ccccc2)n(-c2ccccc2)c1C	> 6.53 µM	> 6.53 µM	
CCn1c2ccc(Cl)cc2c2cc(Cl)ccc21	> 12.5 µM	> 12.5 µM	
COc1cccc(NC(=O)Nc2ccc(N3CCN(c4ncccc4C(F)(F)F)CC3)nc2)c1	> 6.98 µM		IC50 (PBLUC_HILL_SLOPE 3.4, PBLUC_R_SQUARED 0.647, read-out: LUCIFERASE INFECTION ASSAY - IC50): 5.69 µM
CCOC(=O)c1cc(N/N=C(/C(=O)Nc2cccnc2)C(=O)c2ccccc2)cc(C(=O)OCC)c1	> 10 µM	> 10 µM	
Cn1c(NCc2ccccc2)nc2cnc(Nc3cccc(C(F)(F)F)c3)cc21	> 10 µM		IC50 (PBLUC_HILL_SLOPE 1.17, PBLUC_R_SQUARED 0.452, read-out: LUCIFERASE INFECTION ASSAY - IC50): 4.08 µM
Cc1ccc(NNC(=O)c2cnc3c(c2)c(C)nn3C)cc1Cl	> 10 µM		IC50 (PBLUC_HILL_SLOPE 2.54, PBLUC_R_SQUARED 0.422, read-out: LUCIFERASE INFECTION ASSAY - IC50): 7.03 µM
